For experiment [1], the target named is voltage-gated K+ channel KCNQ2 (Homo sapiens, UniProt O43526). Nature of the experiment: Thallium flux assay for openers of KCNQ potassium channels. Type of experiment: cell-based. The note with it: 10 point concentration series, concentration required to yield 50% of the maximal response. An excerpt:
A thallium flux assay was used to detect and characterize openers of KCNQ potassium channels. The thallium assay is generally described in International application WO 02/31508 published Apr. 18, 2002. More specifically, the thallium influx assay to detect compounds that block or open the voltage-gated K^+ channel KCNQ2 is described in Example IV of the published WO 02/31508 application.
For data analysis, the amplitude of the average of the negative controls was subtracted from all wells. The amplitudes of the test compounds were then compared to the value of four standard deviations of the negative control wells. The lowest concentration of a test compound sufficient to generate a signal amplitude greater than or equal to four standard deviations from the amplitude of the negative controls was defined as the minimal active concentration.
For generating EC50 values, compounds were serially diluted in 1:3 volume increments to produce a 10 point concentration series. EC50 values were calculated by fitting the resulting amplitudes to a single-site logistic equation. EC50 was defined as the concentration of test compound required to yield 50% of the maximal response. Maximal response (Maximal opening) was the largest signal amplitude above the negative control generated by any concentration of a test compound.

Another experiment has as its target T1, mKCNQ2 channels (Mus musculus, UniProt Q9Z351).
T1 construct: expressed in transfected cells
As to the kind of experiment: Whole-cell patch-clamp recordings of mKCNQ2 currents. It is filed as cell-based. The note with it: for EC50: HEK 293 stable cell line expressing mKCNQ2, @ −40 mV, room temperature; for Imax (%): HEK 293 stable cell line expressing mKCNQ2, Imax from Hill-type curve fit. How it is done: Whole-cell patch-clamp recordings were made from an HEK 293 stable cell line expressing mKCNQ2 channels, maintained in culture for 1–2 days. Patch pipettes had initial resistances of 2.5–4 MΩ. Currents were recorded with an EPC-9 amplifier (HEKA, Lambrecht, Germany) controlled with software (Pulse, HEKA) run on a standard lab PC. Series resistance compensation was used during current recording, and set at 80%. The series resistance (R) and cell capacitance (C) were determined electronically by subtracting the capacitive currents at the onset and offset of a 5 mV voltage step. The cancellation of whole-cell capacitive transients was virtually complete in all cells. Analog current signals were low-pass filtered at 2.9 kHz using a four-pole Bessel filter −3 dB) and stored on a local network server computer at a sampling rate of […]. All recordings were performed at room temperature (20–22° C.). The pipette solution contained (mM): KCl, 150; CaCl2, 2.5; EGTA, 5; MgCl2, 1; HEPES, 10; pH to 7.3 with KOH, and Osmolality of 290–300 mOsm. The extracellular solution contained (mM): NaCl, 140; KCl, 2.5; CaCl2, 2.5; MgCl2, 1; glucose, 10; HEPES, 10; pH to 7.3 with NaOH, and Osmolality of 305–310 mOsm
Concentration response data were generated by measuring the difference in the steady-state amplitude of current in the presence of compound at the end of a 600 ms voltage-clamp step from a holding potential of −80 mV. The concentration-response data were fitted with Hill-type equations: I=Imax/(1+EC50/[A]^nH), where I is the steady-state current at a given concentration of agonist [A]; and Imax, EC50 and nH are parameters estimated from the curve fit. In some cases the concentration-response data were fitted with equations consisting of the sum of two Hill-type components. Current-voltage (I/V) relationships for agonist-evoked currents were obtained by performing 600 ms voltage steps (−110 mV to +40 mV) in the absence and presence of agonist.
In general terms: The patch-clamp technique gives a direct electrical read-out from membranes.

By EC50 is commonly meant the midpoint of the concentration-response curve.

`O=C(/C=C/c1ccc(F)cc1F)N[C@@H](CO)c1ccc2ccccc2c1` [Example 55, (R)-3-(2,4-Difluoro-phen-yl)-N-(2-hydroxy-1-naph-thalen-2-yl-ethyl)-acryl-amide] had a half-maximal effective concentration (EC50) in experiment [1] of 144 nM. The same measure, in the same setting: the same measure for `O=C(/C=C/c1ccccc1)N[C@@H](CO)c1ccc2ccccc2c1` [Example 49]: 354 nM. In the case of `O=C(/C=C/c1ccc(F)cc1)N[C@@H](CO)c1ccc2ccccc2c1` [Example 48, (R)-3-(4-Fluoro-phenyl)-N-(2-hy-droxy-1-naphthalen-2-yl-eth-yl)-acrylamide], at mKCNQ2 channels, the concentration for a half-maximal effect (EC50) amounted to 0.619 µM and the “Imax (%)” value is on record as 981%. A half-maximal effect in experiment [1] (EC50) was put at 503 nM. Compound `O=C(/C=C/c1ccccc1Cl)N[C@H](c1ccc2ccccc2c1)[C@H](O)CO` [Example 106, (1R,2S)-3-(2-Chloro-phenyl)-N-(2,3-dihydroxy-1-naph-thalen-2-yl-propyl)-acryl-amide] showed an EC50 in experiment [1] of 1440 nM. Same read-out and setting: the same measure for `O=C(/C=C/c1ccc(F)c(F)c1)N[C@@H](CO)c1ccc2ccccc2c1` [Example 58, (R)-3-(3,4-Difluoro-phen-yl)-N-(2-hydroxy-1-naph-thalen-2-yl-ethyl)-acryl-amide]: 892 nM. On to `O=C(/C=C/c1ccc(F)cc1F)NC(CO)c1cccc(N2CCOCC2)c1` (stereo in doubt) [Example 18, (R)-3-(2,4-Difluoro-phenyl)-N-[2-hydroxy-1-(3-morpho-lin-4-yl-phen-yl)-ethyl]-acrylamide], for which, on mKCNQ2 channels, the response was half-maximal at 1.46 µM (EC50) and the “Imax (%)” value is listed as 820%. Compound `O=C(/C=C/c1cccc(F)c1)N[C@@H](CO)c1ccc2ccccc2c1` [Example 47, (R)-3-(3-Fluoro-phenyl)-N-(2-hy-droxy-1-naphthalen-2-yl-eth-yl)-acrylamide] had a concentration giving a half-maximal response (EC50) in experiment [1] of 39 nM. Same read-out and setting: as for `O=C(/C=C/c1ccc(F)cc1F)N[C@H](c1ccc2ccccc2c1)[C@H](O)CO` [Example 111, (1R,2S)-3-(2,4-Difluoro-phen-yl)-N-(2,3-dihydroxy-1-naph-thalen-2-yl-propyl)-acryl-amide], the figure is 980 nM.
